Measured values: patent EP0304063B1, “Quinoline type mevalonolactones” (NISSAN CHEMICAL INDUSTRIES LTD., priority 1987, dated 1989)

System: cholesterol biosynthesis in vivo
Assay: Test C: Inhibition of cholesterol biosynthesis in vivo
Parameters: species or system Male Sprague-Dawley rats
Conditions: oral administration of 0.05 mg/kg, relative to the control group, rats

| SMILES | percent decrease of counts [%] |
| --- | --- |
| O=C(O)CC(O)CC(O)/C=C/c1c(C2CC2)nc2ccccc2c1-c1ccc(F)cc1 (stereo not drawn) [Compound I-520] | 55 |

Same assay, conditions: oral administration of 10 mg/kg, relative to the control group, rats

| SMILES | percent decrease of counts [%] |
| --- | --- |
| CC[C@H](C)C(=O)O[C@H]1C[C@H](O)C=C2C=C[C@H](C)[C@H](CC[C@@H](O)C[C@@H](O)CC(=O)O)[C@H]21 [CS-514, reference compound] | 55 |

System: not listed separately
Assay: Test D: Acute toxicity
Conditions: mouse, in vivo, po; orally administered 1000 mg/kg, 0.5% CMC suspension, ICR male mice, after seven days
Experimental: A 0.5% CMC suspension of a test compound was orally administered to ICR male mice (group of three mice). The acute toxicity was determined based on the mortality after seven days. With compound I-57, I-58, I-59, I-511, I-512, I-513, I-514, I-515, I-517 and I-523 of the present invention, the mortality was 0% even when they were orally administered in an amount of 1000 mg/kg.

| SMILES | mortality at 168 h [%] |
| --- | --- |
| Cc1ccc(-c2c(/C=C/C(O)CC(O)CC(=O)O)c(C(C)C)nc3ccccc23)cc1 (stereo not drawn) [Compound I-511] | 0 |
| CC(C)c1nc2ccc(Cl)cc2c(-c2ccccc2Cl)c1/C=C/C(O)CC(O)CC(=O)O (stereo not drawn) [Compound I-512] | 0 |
| CC(C)c1nc2ccccc2c(-c2ccc(C(F)(F)F)cc2)c1/C=C/C(O)CC(O)CC(=O)O (stereo not drawn) [Compound I-513] | 0 |
| Cc1cc(-c2c(/C=C/C(O)CC(O)CC(=O)O)c(C(C)C)nc3ccccc23)ccc1F (stereo not drawn) [Compound I-514] | 0 |
| Cc1ccc2c(-c3ccccc3)c(/C=C/C(O)CC(O)CC(=O)O)c(C(C)C)nc2c1 (stereo not drawn) [Compound I-58] | 0 |
| O=C(O)CC(O)CC(O)/C=C/c1c(-c2ccccc2)nc2ccc(Cl)cc2c1-c1ccccc1 (stereo not drawn) [Compound I-523] | 0 |
| CCc1nc2ccccc2c(-c2ccc(F)cc2)c1/C=C/C(O)CC(O)CC(=O)O (stereo not drawn) [Compound I-517] | 0 |
| CC(C)c1nc2ccccc2c(-c2ccc(Cl)cc2)c1/C=C/C(O)CC(O)CC(=O)O (stereo not drawn) [Compound I-59] | 0 |
| CC(C)c1nc2ccccc2c(-c2ccccc2F)c1/C=C/C(O)CC(O)CC(=O)O (stereo not drawn) [Compound I-57] | 0 |
| Cc1cc(C)cc(-c2c(/C=C/C(O)CC(O)CC(=O)O)c(C(C)C)nc3ccccc23)c1 (stereo not drawn) [Compound I-515] | 0 |
